The values below come from ChEMBL document CHEMBL1138693, “Synthesis and biological evaluation of piperazine-based derivatives as inhibitors of plasminogen activator inhibitor-1 (PAI-1)” (Bioorg Med Chem Lett, 2004).

Some results are limits rather than exact numbers.

Series [1] deals with Plasminogen activator inhibitor 1 (Homo sapiens, UniProt P05121). Briefly: Inhibitory concentration against plasminogen activator inhibitor-1 (PAI-1).
Series [2] in a line: Bioavailability in rat. It counts as ADME, organism-based. As to conditions: in vivo.
Series [3] can be described thus: Volume of distribution of compound in rats after intravenous administration. As to conditions: rat, in vivo, read-out: Vdss. The format is ADME, organism-based.
The nature of series [4]: Half-life period of compound in rats after peroral administration. It counts as ADME, organism-based. To be noted: rat, in vivo, po.
A short description of series [5]: Maximal concentration in rats after peroral administration. To be noted: rat, in vivo, po. It counts as ADME, organism-based. More on the design: route oral.
The nature of series [6]: […] of compound in rats after peroral administration. It counts as ADME, organism-based. To be noted: rat, in vivo, po.
Series [7] in a line: Clearance of compound in rats after intravenous administration. As to conditions: rat, in vivo. It counts as ADME, organism-based.

Plasminogen activator inhibitor 1, sequence (P05121 whole entry): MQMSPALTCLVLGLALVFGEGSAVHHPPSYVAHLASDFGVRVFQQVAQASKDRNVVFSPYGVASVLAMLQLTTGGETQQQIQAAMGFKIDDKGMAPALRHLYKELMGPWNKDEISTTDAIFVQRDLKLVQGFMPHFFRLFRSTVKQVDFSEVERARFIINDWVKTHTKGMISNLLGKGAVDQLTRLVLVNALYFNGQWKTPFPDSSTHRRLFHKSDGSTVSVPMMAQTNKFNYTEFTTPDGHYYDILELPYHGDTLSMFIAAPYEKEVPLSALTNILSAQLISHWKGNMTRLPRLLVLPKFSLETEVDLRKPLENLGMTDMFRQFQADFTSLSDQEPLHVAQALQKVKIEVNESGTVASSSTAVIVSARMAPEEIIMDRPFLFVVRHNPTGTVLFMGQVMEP

As to `O=C(O)c1ccc(CNc2ccc([N+](=O)[O-])c(N3CCN(c4cccc(C(F)(F)F)c4)CC3)c2)cc1`, the IC50 (as a rule, the concentration needed to halve the response being measured) in series [1] turned out to be 6700 nM. Same read-out and setting: the value for `O=C(O)c1ccc(Oc2cc(N3CCN(c4cccc(C(F)(F)F)c4)CC3)c([N+](=O)[O-])cc2C(F)(F)F)cc1` was 2100 nM; that for `O=C(O)c1cccc(Oc2cc(N3CCN(c4cccc(C(F)(F)F)c4)CC3)c([N+](=O)[O-])cc2C(F)(F)F)c1` was 3700 nM.

In series [1], `O=C(O)c1ccccc1Oc1ccc([N+](=O)[O-])cc1CNc1ccc(N2CCN(c3cccc(C(F)(F)F)c3)CC2)c(C(F)(F)F)c1` came in with an IC50 of 1000 nM. `O=C(O)C1CCN(c2cc(N3CCN(c4ccc(C(F)(F)F)cc4)CC3)c([N+](=O)[O-])cc2C(F)(F)F)CC1` registered a half-inhibitory concentration (IC50) in series [1] of 1100 nM.

`O=C(O)C1CCN(c2cc(N3CCN(c4ccc(C(F)(F)F)cn4)CC3)c([N+](=O)[O-])cc2C(F)(F)F)CC1` yielded a concentration for half-maximal inhibition (IC50) in series [1] of 3200 nM.

On to `CC(C)[C@@H]1CC[C@@H](C)C[C@H]1OCC(=O)N1CCN(c2cc(N3CCC(C(=O)O)CC3)c(C(F)(F)F)cc2[N+](=O)[O-])CC1`, for which the IC50 in series [1] is over 15000 nM. Regarding `O=C(O)CCNc1cc(N2CCN(c3cccc(C(F)(F)F)c3)CC2)c([N+](=O)[O-])cc1C(F)(F)F`, in series [1], the IC50 was determined as 900 nM. Regarding `O=C(O)C1CCN(c2cc(N3CCN(C(=O)c4cccc(C(F)(F)F)c4)CC3)c([N+](=O)[O-])cc2C(F)(F)F)CC1`, in series [1], the IC50 came to 5000 nM.

In turn, `O=C(O)C1CCN(c2cc(N3CCN(Cc4cccc(C(F)(F)F)c4)CC3)c([N+](=O)[O-])cc2C(F)(F)F)CC1` showed an IC50 in series [1] of 4300 nM. Turning to `O=C(O)C1CCN(c2cccc(F)c2CNc2ccc(N3CCN(c4cccc(C(F)(F)F)c4)CC3)c(C(F)(F)F)c2)CC1`, 1000 nM corresponded to half-maximal inhibition in series [1] (IC50).

As for `O=C(O)c1ccc(CNc2ccc(N3CCN(c4cccc(C(F)(F)F)c4)CC3)c(C(F)(F)F)c2)cc1`, the concentration for half-maximal inhibition (IC50) in series [1] turned out to be 1700 nM. The compound `O=C(O)C1CCN(c2cc(N3CCN(C(=O)Nc4cccc(C(F)(F)F)c4)CC3)c([N+](=O)[O-])cc2C(F)(F)F)CC1` registered a half-inhibitory concentration (IC50) in series [1] of 3500 nM. `O=C(O)c1ccc(CNc2nc(N3CCN(c4cccc(C(F)(F)F)c4)CC3)ccc2[N+](=O)[O-])cc1` yielded an IC50 in series [1] of 3400 nM. In turn, `O=C(O)C1CCN(c2cccc(C(F)(F)F)c2CNc2ccc(N3CCN(c4cccc(C(F)(F)F)c4)CC3)c(C(F)(F)F)c2)CC1` came in with an IC50 in series [1] of 1700 nM. In series [1], `O=C(O)c1ccc(CNc2cc(N3CCN(c4cccc(C(F)(F)F)c4)CC3)c([N+](=O)[O-])cc2[N+](=O)[O-])cc1` returned an IC50 of 1400 nM. Regarding `O=C(O)c1ccc(CNc2ccc([N+](=O)[O-])c(N3CCN(c4cccc(C(F)(F)F)c4)CC3)n2)cc1`, the IC50 in series [1] is 6100 nM. In turn, `O=C(O)C1CCCN1c1c([N+](=O)[O-])ccc(F)c1CNc1ccc(N2CCN(c3cccc(C(F)(F)F)c3)CC2)c(C(F)(F)F)c1` (stereo not given) yielded an IC50 in series [1] of 1400 nM. In series [1], `O=[N+]([O-])c1cc(C(F)(F)F)c(N2CCN(c3cccc(C(F)(F)F)c3)CC2)cc1NC[P+]([O-])(O)O` returned an IC50 of 1800 nM. For `O=C(O)C1CCCN(c2cc(N3CCN(c4cccc(C(F)(F)F)c4)CC3)c([N+](=O)[O-])cc2C(F)(F)F)C1` (stereo not given), inhibition in series [1] was half-maximal at 2800 nM (IC50). Take `COc1cccc(CNc2ccc(N3CCN(c4cccc(C(F)(F)F)c4)CC3)c(C(F)(F)F)c2)c1Oc1ccc([N+](=O)[O-])cc1C(=O)O`: the bioavailability (in general, the share of a dose that reaches the circulation, judged against a reference dose that is usually intravenous) in series [2] is 43%. Further, the Vd in series [3] amounted to 1.33 L/kg. Further, the half-life – broadly, the time needed for the level to fall by half in the phase considered – in series [4] is 2.8 h. The compound further showed a concentration for half-maximal inhibition (IC50) in series [1] of 500 nM. For the same compound, in series [5], the peak level (Cmax) was 480 nM. Also, the time of peak concentration (Tmax) (as a rule, the time from dosing to the highest level) in series [6] worked out at 3 h. In series [7], the clearance (in general, the volume of plasma or blood freed of the substance per unit of time) came out at 10.4 mL/min/kg. The compound `COc1cccc(CNc2ccc(N3CCN(c4cccc(C(F)(F)F)c4)CC3)c(C(F)(F)F)c2)c1Oc1ccc(C(=O)O)cn1` registered a half-inhibitory concentration (IC50) in series [1] of 900 nM. Turning to `COc1cccc(CNc2ccc(N3CCN(c4cccc(C(F)(F)F)c4)CC3)c(C(F)(F)F)c2)c1Oc1c(C(=O)O)cc(Cl)cc1[N+](=O)[O-]`, it took 900 nM to reach half-maximal inhibition in series [1] (IC50).

On to `O=C(O)c1ccc(CNc2cc(N3CCN(c4cccc(C(F)(F)F)c4)CC3)c([N+](=O)[O-])cc2C(F)(F)F)cc1`, for which the concentration for half-maximal inhibition (IC50) in series [1] turned out to be 1500 nM.

Consider `O=C(O)C1CCCN(c2cccc(F)c2CNc2ccc(N3CCN(c4cccc(C(F)(F)F)c4)CC3)c(C(F)(F)F)c2)C1` (stereo not given), for which inhibition in series [1] was half-maximal at 1700 nM (IC50). For `COC(=O)c1c(NCc2ccc(C(=O)O)cc2)ccc([N+](=O)[O-])c1N1CCN(c2cccc(C(F)(F)F)c2)CC1`, the 50% inhibitory concentration (IC50) in series [1] is over 15000 nM. Compound `O=C(O)C1CCN(c2c([N+](=O)[O-])ccc(F)c2CNc2ccc(N3CCN(c4cccc(C(F)(F)F)c4)CC3)c(C(F)(F)F)c2)CC1` yielded a half-inhibitory concentration (IC50) in series [1] of 700 nM. `O=C(O)C1CCCN1c1cc(N2CCN(c3cccc(C(F)(F)F)c3)CC2)c([N+](=O)[O-])cc1C(F)(F)F` (stereo not given) registered an IC50 in series [1] of 7900 nM. Turning to `O=C(O)c1cc(Br)ccc1Oc1cccc(F)c1CNc1ccc(N2CCN(c3cccc(C(F)(F)F)c3)CC2)c(C(F)(F)F)c1`, the half-inhibitory concentration (IC50) in series [1] was 800 nM.

For `O=C(O)C1CCN(c2cc(N3CCN(c4cccc(C(F)(F)F)c4)CC3)c([N+](=O)[O-])cc2C(F)(F)F)CC1`, the midpoint of inhibition in series [1], the IC50, lay at 910 nM. On to `O=C(O)C1CCN(c2cc(N3CCN(c4c([N+](=O)[O-])ccc(C(F)(F)F)c4[N+](=O)[O-])CC3)c([N+](=O)[O-])cc2C(F)(F)F)CC1`, for which the 50% inhibitory concentration (IC50) in series [1] was over 15000 nM. The compound `CC(C)[C@@H]1CC[C@@H](C)C[C@H]1OCC(=O)Nc1cc(Oc2ccc(C(=O)O)cc2)ccc1[N+](=O)[O-]` gave a bioavailability in series [2] of 23%. For the same compound, the Vd in series [3] came to 0.4 L/kg. Besides, in series [4], the half-life was 3 h. In addition, the concentration in series [5] peaked (Cmax) at 160 nM. Further, the time of peak concentration (Tmax) in series [6] was found to be 3 h. Besides, the clearance in series [7] is 4.84 mL/min/kg. In series [1], `O=C(O)c1ccc(CNc2cc(N3CCN(c4cccc(C(F)(F)F)c4)CC3)ccc2[N+](=O)[O-])cc1` registered a half-inhibitory concentration (IC50) of 2800 nM.

In turn, `O=C(O)C1CCN(c2cc(N3CCN(c4cccc(C(F)(F)F)c4)CC3)c(C(F)(F)F)cc2[N+](=O)[O-])CC1` returned a 50% inhibitory concentration (IC50) in series [1] of 880 nM.
